Here are results for five compounds from US4469701A, “Pyrrolid-3-en-2-ones and pharmaceutical methods of use thereof” (Stauffer Chemical Company, priority 1983, dated 1984).

The subject of series [1] is rats. Briefly: Antiulcer: stress induced gastric ulcers in rats. Format: in vivo, rat. Particulars: for inhibition in vivo at 50 mg/kg: Rattus norvegicus, 4 hr. following a 50 mg/kg oral dose in rats, significance >60, read-out: U = Antiulcerative: percent inhibition of stress ulcers. As to the method:
Fasted rats were dosed, p.o., 30 minutes before immobilization in wire mesh and partial immersion in water for 4 hours. Inhibition of the resulting stress induced gastric ulcers by more than 60% (>60) indicates activity.
^6 U = Antiulcerative. Percent inhibition of stress ulcers 4 hr.
following a 50 mg/kg oral dose in rats.

For series [2], the system named is spontaneously hypertensive rats (SHR). Briefly: Antihypertensive: blood pressure (tail cuff) in spontaneously hypertensive rats (SHR). The format is in vivo, rat. The settings on record: Rattus norvegicus; 6 hr. after a 100 mg/kg oral dose; significance >10; read-out: Antihypertensive: percent decrease in systolic blood pressure in spontaneously hypertensive rats. As to the method: Blood pressure was measured indirectly (tail cuff) in unanesthetized, unheated spontaneously hypertensive rats (SHR) before and 2, 4, and 6 hours after p.o. dosing. Reduction in mean pressure by more than 10% (>10) at any two consecutive measurement times after dosing indicates antihypertensive activity.

Series [3] can be described thus: Central nervous system (CNS) depression/effects. The settings on record: in vivo.
The subject of series [4] is glucose-loaded mice. Briefly: Hypoglycemic, glucose-loaded mice. The settings on record: glucose loaded mice, 100 mg/kg oral dose; significance >20. The format is in vivo, mouse. Here is the method:
Reduction in blood glucose concentration by more than 20% (>20) in fasted, glucose-loaded (1 gm/kg) mice one hour after dosing, p.o., indicates activity (test compound administered at same time as glucose load).
^5 H = Hypoglycemic. Percent decrease in serum glucose concentration
in glucose loaded mice hr. following a 100 mg/kg oral dose.

The nature of series [5]: Anticholinergic properties (overall statement). Particulars: in vivo.
Series [6] deals with hypercholesterolemic mice. Briefly: Hypocholesterolemic: serum cholesterol in hypercholesterolemic mice. The format is in vivo, mouse. Particulars: for inhibition in vivo at 200 mg/kg: Mus musculus, hypercholesterolemic mice, 2 oral doses of 200 mg/kg 20 hr. apart, significance >20, read-out: C = Hypocholesterolemic: percent decrease in serum cholesterol. Here is the method: Mice made hypercholesterolemic by being fed a high cholesterol-cholic acid diet for 7 days were dosed on the sixth and seventh days, p.o. After fasting overnight, reduction in serum cholesterol concentration by more than 15% (>15) from hypercholesterolemic control mice indicates activity.
^4 C = Hypocholesterolemic. Percent decrease in serum cholesterol in
hypercholesterolemic mice given 2 oral doses of 200 mg/kg drug candidate

Series [7] deals with mice. Kind of series: Antiarrhythmic: chloroform-induced cardiac arrhythmia in mice. Format: in vivo, mouse. The settings on record: 15 min. after a 200 mg/kg intraperitoneal dose; significance <2. As to the method:
^2 A = Antiarrythmic. Less than 2/3 mouse hearts fibrillating 15 min.

Series [8] concerns mice. Briefly: Acute toxicity / autonomic effects observation. Particulars: mouse, in vivo. Here is the method: Mice were dosed at 300 mg/kg, per oral (p.o.) and […], interperitoneal (i.p.) for observation of any acute toxic symptoms or autonomic effects during the subsequent 72 hours. If none were noted, pharmacological evaluation proceeded employing doses and concentrations for each test based on appropriate multiples of doses required by suitable reference compounds. If acute toxicity was observed initially, the minimal toxic dose was determined and pharmacological screening doses were reduced proportionately.

The subject of series [9] is rats. Kind of series: Bradycardia: heart rate by EKG in rats. Particulars: for inhibition in vivo at 5 mg/kg: Rattus norvegicus, 0.75 h, 45 min. after a 5 mg/kg oral dose in rats, significance >10, read-out: B = Bradycardiac: percent decrease in heart rate. The format is in vivo, rat. Here is the method:
[…] Decrease in heart rate by more than 10% (>10) is considered a bradycardic effect.
Percent decrease in heart rate 45 min. after a 5
mg/kg oral dose in rats.

Series [10] in a line: Overall pharmacological profile. The settings on record: in vivo.
Series [11] in a line: Estrogenic effects. Particulars: in vivo.
Series [12] has as its system hypercholesterolemic mice. Briefly: HP-betalipoprotein: serum heparin precipitating lipoprotein (HPL). The format is in vivo, mouse. Particulars: 200 and 400 mg/kg, p.o. The text has this: Reduction of serum heparin precipitating lipoprotein (HPL) concentrations (corresponding to low density lipoprotein and very low density lipoprotein fractions) in the same hypercholesterolemic mice from Test 6 above by more than 20% (>20) from control animals indicates activity.

Regarding `CC1(C)CCCC(C)(C)N1CC1=CC(=O)N(c2cccc(C(F)(F)F)c2)C1` [Compound 1], the inhibition in vivo at 50 mg/kg in series [1] was 75%. In series [2], the inhibition in vivo at 100 mg/kg was determined as 19%. Also, the “CNS depression / CNS effects” value in series [3] is “absence of notable central nervous system (CNS) depression”. Moreover, the “H = Hypoglycemic: percent decrease in serum glucose concentration” value in series [4] stood at 14%. Further, in [5], the Anticholinergic properties/effects entry is “absence of notable”. Also, in [6], the inhibition in vivo at 200 mg/kg was found to be 5%. The “A = Antiarrythmic: mouse hearts fibrillating (of 3)” value (from here on “A = Antiarrythmic”) in series [7] turned out to be 0. Further, the “Acute toxicity / toxic effects” value in series [8] was “apparent lack of acute toxicity”. For the same compound, the inhibition in vivo at 5 mg/kg in [9] is 14%.
In the case of `CC1(C)CCCC(C)(C)N1CC1=CC(=O)N(c2ccc(C(F)(F)F)cc2)C1` [Compound 7], in [1], the inhibition in vivo at 50 mg/kg was 38%. Besides, in series [2], the inhibition in vivo at 100 mg/kg stood at 16%. In addition, the “H = Hypoglycemic: percent decrease in serum glucose concentration” value in [4] was found to be 22%. Also, the “Profile (comparison with another compound)” value (“Profile” below) in series [10] is “generally similar to that of Compound 6”. Moreover, the inhibition in vivo at 200 mg/kg in series [6] was determined as 0%. In series [7], the “A = Antiarrythmic” value is given as 3. For the same compound, the inhibition in vivo at 5 mg/kg in [9] is 12%.
For the compound `CSc1ccc(N2CC(CN3C(C)(C)CCCC3(C)C)=CC2=O)cc1` [Compound 8], the inhibition in vivo at 50 mg/kg in series [1] stood at 50%. For the same compound, the inhibition in vivo at 100 mg/kg in series [2] was found to be 25%. For the same compound, in [10], the “Profile” value was “generally similar to that of Compound 6”. In addition, in series [6], the inhibition in vivo at 200 mg/kg turned out to be 0%. Also, the “A = Antiarrythmic” value in [7] was determined as 3. Moreover, the inhibition in vivo at 5 mg/kg in series [9] was found to be 18%.
For the compound `CC1(C)CCCC(C)(C)N1CC1=CC(=O)N(c2cc(C(F)(F)F)ccc2Cl)C1` [Compound 10], in series [1] (50 mg/kg, p.o., rats), the “Protection from stress-induced gastric ulcers, in words” value is on record as “partially protected”. Also, the inhibition in vivo at 50 mg/kg in series [1] stood at 75%. Further, the inhibition in vivo at 100 mg/kg in series [2] was found to be 15%. In series [5], the Anticholinergic properties/effects entry is reported as “absence of evidence of anticholinergic effects”. Besides, the Estrogenic effects result in series [11] was “No estrogenic effects”. Besides, in series [12], the HPL/cholesterol ratio entry is on record as “large reductions” and the “Heparin precipitating lipoproteins (HPL), in words” value is “Marked reductions”. Moreover, in series [6] (200 and 400 mg/kg, p.o.), the “Serum cholesterol, in words” value is given as “Marked reductions”. In addition, the inhibition in vivo at 200 mg/kg in [6] was 46%. In addition, the “A = Antiarrythmic” value in series [7] amounted to 3. Further, in series [9], the inhibition in vivo at 5 mg/kg was 1%. The “Bradycardic effects, in words” value in [9] (rat, in vivo) was “No”.
Regarding `COc1ccc(N2CC(CN3C(C)(C)CCCC3(C)C)=CC2=O)cc1OC` [Compound 12], the inhibition in vivo at 50 mg/kg in series [1] stood at 75%. For the same compound, in [2], the inhibition in vivo at 100 mg/kg worked out at 14%. In addition, the “Profile” value in series [10] is reported as “generally similar to that of Compound 6”. Moreover, the inhibition in vivo at 200 mg/kg in [6] worked out at 3%. Also, in series [7], the “A = Antiarrythmic” value is 2. Also, the inhibition in vivo at 5 mg/kg in [9] was determined as 13%.
